Results reported in the NIST ThermoML archive (doi:10.1021/je800382b).
“And” between values parts separate entries of the source, which are not always exact repeats. Equal values may be shown once. ± gives the expanded uncertainty stated by the source.

Legend:
[1] = Molar enthalpy of transition or fusion; conditions: DSC
[2] = DTA
[3] = molar heat capacity at constant pressure; conditions: 101.33 kPa, Small sample (50 mg) DSC

c1ccc2cc3cc4ccccc4cc3cc2c1 [2,3-benzanthracene]
Conditions	Molar enthalpy of transition or fusion, Crystal 1 [kcal/mol]	Molar enthalpy of transition or fusion, Crystal 2 [kcal/mol]	Molar enthalpy of transition or fusion, Crystal 3 [kcal/mol]	Normal melting temperature, Crystal 1 [°C]	Triple point temperature, Crystal 2 [K]	Triple point temperature, Crystal 3 [K]
[1]	8.8 ± 0.263	0.287 ± 0.0478	0.0263 ± 0.0311	–	–	–
[2]	–	–	–	353.1 ± 0.4	581.9 ± 1.1	398.1 ± 2.4

[3]
Conditions	molar heat capacity at constant pressure
258.1 K, Crystal 3	218.8 ± 5.4 J/K/mol and 220.8 ± 5.4 J/K/mol and 219.3 ± 5.4 J/K/mol
268.3 K, Crystal 3	230.5 ± 5.6 J/K/mol [middle of 4 runs]
278.5 K, Crystal 3	240.6 ± 5.9 J/K/mol [middle of 4 runs]
288.7 K, Crystal 3	250.4 ± 6.1 J/K/mol [middle of 4 runs]
298.9 K, Crystal 3	260.8 ± 6.4 J/K/mol [middle of 4 runs]
299.3 K, Crystal 3	260.9 ± 11 J/K/mol
309.1 K, Crystal 3	269.7 ± 6.6 J/K/mol [middle of 4 runs]
309.3 K, Crystal 3	270.1 ± 12 J/K/mol
319.2 K, Crystal 3	280.1 ± 12 J/K/mol
319.4 K, Crystal 3	278 ± 6.8 J/K/mol [middle of 4 runs]
329.1 K, Crystal 3	286.4 ± 12 J/K/mol
329.6 K, Crystal 3	287.1 ± 7 J/K/mol [middle of 4 runs]
339.1 K, Crystal 3	295.8 ± 12 J/K/mol
339.8 K, Crystal 3	296.6 ± 7.3 J/K/mol and 295.5 ± 7.2 J/K/mol and 295.4 ± 7.2 J/K/mol
349 K, Crystal 3	307.1 ± 13 J/K/mol and 303.7 ± 13 J/K/mol
350 K, Crystal 3	304.2 ± 7.5 J/K/mol [middle of 4 runs]
359 K, Crystal 3	312.4 ± 13 J/K/mol and 314.7 ± 13 J/K/mol
368.9 K, Crystal 3	324.2 ± 14 J/K/mol and 319.7 ± 14 J/K/mol
378.9 K, Crystal 3	330.2 ± 14 J/K/mol and 332.5 ± 14 J/K/mol
388.8 K, Crystal 3	341.4 ± 14 J/K/mol
408.7 K, Crystal 2	357.6 ± 15 J/K/mol
418.6 K, Crystal 2	364.9 ± 16 J/K/mol and 365.7 ± 16 J/K/mol
428.6 K, Crystal 2	378.1 ± 16 J/K/mol
438.5 K, Crystal 2	381.3 ± 16 J/K/mol and 383.5 ± 16 J/K/mol
448.5 K, Crystal 2	391.9 ± 17 J/K/mol and 392.5 ± 17 J/K/mol
458.4 K, Crystal 2	403 ± 17 J/K/mol
468.4 K, Crystal 2	409.4 ± 17 J/K/mol and 411.7 ± 18 J/K/mol
478.3 K, Crystal 2	417.9 ± 18 J/K/mol
488.2 K, Crystal 2	426.2 ± 18 J/K/mol
498.2 K, Crystal 2	438.5 ± 19 J/K/mol
508.1 K, Crystal 2	444.3 ± 19 J/K/mol
518.1 K, Crystal 2	454.5 ± 19 J/K/mol
528 K, Crystal 2	459.9 ± 20 J/K/mol
538 K, Crystal 2	474.1 ± 20 J/K/mol
547.9 K, Crystal 2	479.3 ± 20 J/K/mol
557.8 K, Crystal 2	493.4 ± 21 J/K/mol
647.32 K, Liquid	505.18 ± 31 J/K/mol
657.27 K, Liquid	509.31 ± 31 J/K/mol
667.21 K, Liquid	513.42 ± 32 J/K/mol

c1ccc2cc3cc4cc5ccccc5cc4cc3cc2c1 [2,3:6,7-dibenzanthracene]
[3], Crystal
Conditions	molar heat capacity at constant pressure
258.1 K	264.5 ± 6.5 J/K/mol and 265.5 ± 6.5 J/K/mol and 267.2 ± 6.5 J/K/mol
268.3 K	275.7 ± 6.8 J/K/mol and 277.2 ± 6.8 J/K/mol and 277.1 ± 6.8 J/K/mol
278.5 K	288.9 ± 7.1 J/K/mol and 287.1 ± 7 J/K/mol and 287.5 ± 7 J/K/mol
288.7 K	299.7 ± 7.3 J/K/mol and 299.2 ± 7.3 J/K/mol
298.9 K	311.6 ± 7.6 J/K/mol and 311.5 ± 7.6 J/K/mol and 311 ± 7.6 J/K/mol
309.1 K	322.1 ± 7.9 J/K/mol and 322.4 ± 7.9 J/K/mol and 322.3 ± 7.9 J/K/mol
309.2 K	324.4 ± 14 J/K/mol
319.2 K	338.9 ± 14 J/K/mol
319.4 K	332.5 ± 8.1 J/K/mol and 333.2 ± 8.2 J/K/mol and 332.1 ± 8.1 J/K/mol
329.6 K	345.7 ± 8.5 J/K/mol and 346.5 ± 8.5 J/K/mol and 344.5 ± 8.4 J/K/mol
339.8 K	356.2 ± 8.7 J/K/mol and 354.9 ± 8.7 J/K/mol and 355.1 ± 8.7 J/K/mol
350 K	365.5 ± 9 J/K/mol and 367.2 ± 9 J/K/mol and 366 ± 9 J/K/mol
359 K	384.6 ± 16 J/K/mol
368.9 K	394.9 ± 17 J/K/mol
378.9 K	406 ± 17 J/K/mol
388.8 K	411.4 ± 18 J/K/mol
398.7 K	427.1 ± 18 J/K/mol
408.7 K	425.7 ± 18 J/K/mol
418.6 K	436.8 ± 18 J/K/mol
428.6 K	450.1 ± 19 J/K/mol
438.5 K	457.6 ± 19 J/K/mol
448.5 K	466.7 ± 20 J/K/mol
458.4 K	476.5 ± 20 J/K/mol
468.3 K	481.6 ± 20 J/K/mol
478.3 K	497.2 ± 21 J/K/mol
488.2 K	501.9 ± 21 J/K/mol
498.2 K	509.1 ± 22 J/K/mol
508.1 K	518.2 ± 22 J/K/mol
518.1 K	527.8 ± 22 J/K/mol
528 K	529.1 ± 22 J/K/mol
537.9 K	549.1 ± 23 J/K/mol
547.9 K	552.3 ± 23 J/K/mol
557.8 K	558.6 ± 24 J/K/mol
567.8 K	566.7 ± 24 J/K/mol
577.7 K	575.7 ± 24 J/K/mol
587.7 K	578.8 ± 25 J/K/mol
597.6 K	592.5 ± 25 J/K/mol
